The record followed here is the NIST ThermoML archive (doi:10.1021/je050540h).

For orientation: speed of sound means how fast a sound wave travels through the sample. What is called mass density is mass per unit of volume. The term viscosity denotes the resistance of a fluid to flow.

Values joined by “and” are separate entries in the source; they are usually repeats but may differ in a detail not shown here. Equal values may be shown once. Numbers after ± are expanded uncertainties.

The conditions of one data set: 293.15 K; 7 kPa; Liquid.
With `C1CCCCC1` [cyclohexane], the speed of sound came out at 1279 ± 3 m/s.
On the same count and under the same terms, the result for `CCCC(C)O` (stereo unspecified) [pentan-2-ol] reads 1250 ± 3 m/s.

Still in this data set, the particulars now being: 293.15 K; 101 kPa; Liquid.
Regarding `C1CCCCC1` [cyclohexane], the mass density was 778.62 ± 0.48 kg/m3, the speed of sound is listed as 1279 ± 3 m/s and the viscosity was 0.968 ± 0.024 mPa·s.
For `CCCC(C)O` (stereo unspecified) [pentan-2-ol] the same measures were 809.04 ± 0.47 kg/m3, 1250 ± 3 m/s and 4.001 ± 0.093 mPa·s.
Turning to `C1CCCC1` [cyclopentane], the mass density worked out at 744.52 ± 0.65 kg/m3; the speed of sound came to 1232 ± 3 m/s; the viscosity is 0.438 ± 0.013 mPa·s and 0.439 ± 0.013 mPa·s.
On to `CC(C)O` [propan-2-ol], for which the mass density amounted to 785.07 ± 0.48 kg/m3, the speed of sound amounted to 1156 ± 3 m/s and the viscosity turned out to be 2.382 ± 0.056 mPa·s.
Consider `CCC(C)O` (stereo unspecified) [butan-2-ol], for which the mass density was determined as 806.84 ± 0.47 kg/m3, the speed of sound stood at 1230 ± 3 m/s and the viscosity is on record as 3.623 ± 0.084 mPa·s.

The same data set, now with this note: 298.15 K; 7 kPa; Liquid.
Take `C1CCCCC1` [cyclohexane]: the speed of sound was 1254 ± 3 m/s.
For `CCCC(C)O` (stereo unspecified) [pentan-2-ol], the speed of sound was 1232 ± 3 m/s.

The same data set, now with this note: 298.15 K; 101 kPa; Liquid.
In the case of `C1CCCCC1` [cyclohexane], the mass density was 773.92 ± 0.49 kg/m3, the speed of sound amounted to 1254 ± 3 m/s and the viscosity was 0.887 ± 0.022 mPa·s.
As for `CCCC(C)O` (stereo unspecified) [pentan-2-ol], the mass density was determined as 805.01 ± 0.48 kg/m3, the speed of sound turned out to be 1232 ± 3 m/s and the viscosity turned out to be 3.273 ± 0.077 mPa·s.
For `C1CCCC1` [cyclopentane] the same measures were 739.55 ± 0.65 kg/m3, 1206 ± 3 m/s and 0.416 ± 0.012 mPa·s.
For `CC(C)O` [propan-2-ol] the same measures were 780.87 ± 0.48 kg/m3, 1139 ± 2 m/s and 2.045 ± 0.049 mPa·s.
Regarding `CCC(C)O` (stereo unspecified) [butan-2-ol], the mass density was 802.72 ± 0.48 kg/m3, the speed of sound worked out at 1212 ± 3 m/s and the viscosity came out at 2.995 ± 0.071 mPa·s.

Staying with this data set, now noted: 303.15 K; 7 kPa; Liquid.
Consider `C1CCCCC1` [cyclohexane], for which the speed of sound turned out to be 1230 ± 3 m/s.
With `CCCC(C)O` (stereo unspecified) [pentan-2-ol], the speed of sound is on record as 1214 ± 3 m/s.

Staying with this data set, now noted: 303.15 K; 101 kPa; Liquid.
For `C1CCCCC1` [cyclohexane], the mass density came out at 769.19 ± 0.49 kg/m3, the speed of sound worked out at 1230 ± 3 m/s and the viscosity came to 0.816 ± 0.021 mPa·s.
On the same counts, the results for `CCCC(C)O` (stereo unspecified) [pentan-2-ol] are 800.9 ± 0.48 kg/m3, 1214 ± 3 m/s and 2.774 ± 0.066 mPa·s.
As to `C1CCCC1` [cyclopentane], the mass density is reported as 734.54 ± 0.66 kg/m3, the speed of sound turned out to be 1180 ± 3 m/s and the viscosity stood at 0.394 ± 0.012 mPa·s.
For `CC(C)O` [propan-2-ol] the same measures were 776.6 ± 0.49 kg/m3, 1121 ± 2 m/s and 1.763 ± 0.043 mPa·s.
For `CCC(C)O` (stereo unspecified) [butan-2-ol] the same measures were 798.51 ± 0.48 kg/m3, 1194 ± 3 m/s and 2.493 ± 0.06 mPa·s.
